Source: patent publication US10844077B2, “Thiazolyl-containing compounds for treating proliferative diseases” (Dana-Farber Cancer Institute, Inc., priority 2014, dated 2020)
Several values for one entry are separate records, joined by “and”; a condition that tells them apart may be missing. Equal entries are not always repeated.

Experiments:
Assay in all cases: KINATIV assay
Format in all cases: cell-based
Conditions in all cases: 1 μM, 90 minutes, BCWM.1 cells
[1] = target: ACK (Homo sapiens (Human), UniProt Q07912)
Sequence of ACK (Q07912 whole entry): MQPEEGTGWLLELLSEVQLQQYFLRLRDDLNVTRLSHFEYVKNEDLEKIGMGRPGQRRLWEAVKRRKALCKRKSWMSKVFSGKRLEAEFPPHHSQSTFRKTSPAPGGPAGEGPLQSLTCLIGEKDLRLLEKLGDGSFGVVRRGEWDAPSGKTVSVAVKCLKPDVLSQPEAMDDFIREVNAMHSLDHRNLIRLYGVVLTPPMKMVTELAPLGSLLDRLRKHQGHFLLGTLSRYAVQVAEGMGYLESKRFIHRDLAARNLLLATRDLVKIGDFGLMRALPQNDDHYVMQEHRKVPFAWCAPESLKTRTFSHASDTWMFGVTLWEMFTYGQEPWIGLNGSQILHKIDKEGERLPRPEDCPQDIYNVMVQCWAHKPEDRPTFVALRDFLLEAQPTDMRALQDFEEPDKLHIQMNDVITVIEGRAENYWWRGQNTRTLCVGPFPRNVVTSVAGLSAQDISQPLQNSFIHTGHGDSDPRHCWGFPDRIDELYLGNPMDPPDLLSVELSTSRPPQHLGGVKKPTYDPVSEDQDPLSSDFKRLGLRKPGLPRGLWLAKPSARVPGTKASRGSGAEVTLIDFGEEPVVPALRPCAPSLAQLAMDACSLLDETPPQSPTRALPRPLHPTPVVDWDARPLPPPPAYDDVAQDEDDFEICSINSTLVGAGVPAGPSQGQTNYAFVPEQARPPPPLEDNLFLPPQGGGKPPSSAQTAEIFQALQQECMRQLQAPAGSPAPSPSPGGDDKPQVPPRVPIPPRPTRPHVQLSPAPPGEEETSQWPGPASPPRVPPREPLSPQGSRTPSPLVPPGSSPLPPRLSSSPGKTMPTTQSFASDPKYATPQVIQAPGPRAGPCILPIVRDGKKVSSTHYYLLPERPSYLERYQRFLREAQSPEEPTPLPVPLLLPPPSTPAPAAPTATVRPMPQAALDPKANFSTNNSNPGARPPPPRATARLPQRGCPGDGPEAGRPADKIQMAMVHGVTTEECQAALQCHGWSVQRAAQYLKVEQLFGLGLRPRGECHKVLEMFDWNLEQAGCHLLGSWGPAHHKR
How it was run: (§1)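 Lysed cells serve as the kinase source; labeling uses an ATP-biotin probe added directly to lysate. ACTIVX then identifies and measures the captured kinases, with compound samples in duplicate against duplicate or quadruplicate controls.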

[2] = target: AKT1 (Homo sapiens (Human), UniProt P31749)
How it was run: as §1

[3] = target: ATR (Homo sapiens (Human), UniProt Q13535)
How it was run: as §1

[4] = target: BTK (Homo sapiens (Human), UniProt Q06187)
Sequence of BTK (Q06187 whole entry, looked up): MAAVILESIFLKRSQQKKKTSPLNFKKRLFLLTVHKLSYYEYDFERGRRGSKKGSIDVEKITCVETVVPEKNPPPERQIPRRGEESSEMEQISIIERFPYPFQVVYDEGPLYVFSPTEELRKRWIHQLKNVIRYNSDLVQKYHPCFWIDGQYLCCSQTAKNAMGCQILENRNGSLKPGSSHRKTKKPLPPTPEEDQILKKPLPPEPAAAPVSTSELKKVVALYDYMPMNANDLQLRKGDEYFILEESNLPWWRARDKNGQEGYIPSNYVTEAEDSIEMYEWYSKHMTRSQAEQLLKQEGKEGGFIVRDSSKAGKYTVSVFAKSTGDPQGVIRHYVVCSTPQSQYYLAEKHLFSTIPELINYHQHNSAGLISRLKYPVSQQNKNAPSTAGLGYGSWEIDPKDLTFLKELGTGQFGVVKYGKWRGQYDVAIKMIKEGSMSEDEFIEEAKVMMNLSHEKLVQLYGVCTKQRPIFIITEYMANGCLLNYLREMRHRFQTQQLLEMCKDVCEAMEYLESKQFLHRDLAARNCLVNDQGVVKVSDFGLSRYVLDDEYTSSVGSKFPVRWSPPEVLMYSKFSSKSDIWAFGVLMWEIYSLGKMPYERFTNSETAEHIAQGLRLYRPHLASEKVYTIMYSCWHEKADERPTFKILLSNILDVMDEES
How it was run: as §1

[5] = target: CK1a (Homo sapiens (Human), UniProt P48729)
How it was run: as §1

[6] = target: CLK3 (Homo sapiens (Human), UniProt P49761)
Sequence of CLK3 (P49761 whole entry): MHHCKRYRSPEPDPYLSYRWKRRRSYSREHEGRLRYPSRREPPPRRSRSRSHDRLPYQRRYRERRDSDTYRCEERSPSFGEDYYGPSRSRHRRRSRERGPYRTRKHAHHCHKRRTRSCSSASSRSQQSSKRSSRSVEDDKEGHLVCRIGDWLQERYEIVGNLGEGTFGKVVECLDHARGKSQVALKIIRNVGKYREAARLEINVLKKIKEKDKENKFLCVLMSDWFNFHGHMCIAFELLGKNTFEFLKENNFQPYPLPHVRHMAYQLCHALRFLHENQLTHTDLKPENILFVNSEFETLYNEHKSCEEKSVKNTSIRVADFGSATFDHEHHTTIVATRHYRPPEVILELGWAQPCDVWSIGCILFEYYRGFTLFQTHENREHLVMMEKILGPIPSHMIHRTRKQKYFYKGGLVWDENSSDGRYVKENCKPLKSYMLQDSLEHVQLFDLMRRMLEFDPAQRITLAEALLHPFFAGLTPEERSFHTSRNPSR
How it was run: as §1

[7] = target: CaMK2d (Homo sapiens (Human), UniProt Q13557)
How it was run: as §1

[8] = target: Erk2 (Homo sapiens (Human), UniProt P28482)
How it was run: as §1

[9] = target: Erk5 (Homo sapiens (Human), UniProt Q13164)
Sequence of Erk5 (Q13164 whole entry): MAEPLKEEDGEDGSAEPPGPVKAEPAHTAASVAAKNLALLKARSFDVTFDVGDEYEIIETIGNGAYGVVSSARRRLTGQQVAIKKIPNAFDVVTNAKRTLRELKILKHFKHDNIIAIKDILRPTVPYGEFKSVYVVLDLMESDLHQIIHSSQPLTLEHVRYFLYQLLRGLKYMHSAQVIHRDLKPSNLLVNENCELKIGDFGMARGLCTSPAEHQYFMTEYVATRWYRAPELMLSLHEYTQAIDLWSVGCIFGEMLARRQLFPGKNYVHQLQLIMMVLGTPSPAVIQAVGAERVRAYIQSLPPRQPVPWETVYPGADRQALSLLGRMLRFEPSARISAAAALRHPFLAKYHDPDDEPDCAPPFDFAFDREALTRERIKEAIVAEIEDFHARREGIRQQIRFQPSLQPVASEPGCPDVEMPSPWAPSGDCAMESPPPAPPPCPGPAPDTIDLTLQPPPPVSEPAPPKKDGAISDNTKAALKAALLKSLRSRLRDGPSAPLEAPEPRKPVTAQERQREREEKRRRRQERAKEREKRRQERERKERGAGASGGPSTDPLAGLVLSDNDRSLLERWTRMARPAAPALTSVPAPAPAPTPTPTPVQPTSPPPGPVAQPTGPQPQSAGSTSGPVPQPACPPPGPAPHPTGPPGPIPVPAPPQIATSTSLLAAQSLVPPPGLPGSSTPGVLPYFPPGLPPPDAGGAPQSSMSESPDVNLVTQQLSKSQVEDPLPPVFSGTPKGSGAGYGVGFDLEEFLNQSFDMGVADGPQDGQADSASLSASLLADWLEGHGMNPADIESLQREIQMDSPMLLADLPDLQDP
How it was run: as §1

[10] = target: FES (Homo sapiens (Human), UniProt P07332)
How it was run: as §1

[11] = target: GSK3A (Homo sapiens (Human), UniProt P49840)
How it was run: as §1

[12] = target: IKKe (Homo sapiens (Human), UniProt Q14164)
How it was run: as §1

[13] = system: IKKe, TBK1
How it was run: as §1

[14] = target: ILK (Homo sapiens (Human), UniProt Q13418)
Sequence of ILK (Q13418 whole entry): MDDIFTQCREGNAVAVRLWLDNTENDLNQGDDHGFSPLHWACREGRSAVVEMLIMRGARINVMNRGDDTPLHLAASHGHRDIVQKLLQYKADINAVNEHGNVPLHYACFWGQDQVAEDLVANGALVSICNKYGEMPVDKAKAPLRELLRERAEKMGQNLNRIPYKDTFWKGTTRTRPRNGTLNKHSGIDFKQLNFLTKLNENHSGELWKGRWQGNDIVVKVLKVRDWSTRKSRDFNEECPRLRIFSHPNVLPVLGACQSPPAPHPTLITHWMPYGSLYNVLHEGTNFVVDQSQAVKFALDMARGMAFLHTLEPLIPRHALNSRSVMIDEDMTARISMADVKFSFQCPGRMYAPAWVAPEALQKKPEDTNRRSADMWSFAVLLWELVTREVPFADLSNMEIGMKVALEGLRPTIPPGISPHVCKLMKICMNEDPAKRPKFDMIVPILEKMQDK
How it was run: as §1

[15] = target: IRAK1 (Homo sapiens (Human), UniProt P51617)
How it was run: as §1

[16] = target: LRRK2 (Homo sapiens (Human), UniProt Q5S007)
How it was run: as §1

[17] = target: MAP2K1 (Homo sapiens (Human), UniProt Q02750)
How it was run: as §1

[18] = system: MAP3K15, MAP3K5, MAP3K6
How it was run: as §1

[19] = target: MAP3K3 (Homo sapiens (Human), UniProt Q99759)
How it was run: as §1

[20] = target: MAP3K6 (Homo sapiens (Human), UniProt O95382)
How it was run: as §1

[21] = target: MARK2 (Homo sapiens (Human), UniProt Q7KZI7)
How it was run: as §1

[22] = system: MARK2, MARK3
How it was run: as §1

[23] = system: MARK3, MARK4
How it was run: as §1

[24] = target: MAST3 (Homo sapiens (Human), UniProt O60307)
How it was run: as §1

[25] = target: MELK (Homo sapiens (Human), UniProt Q14680)
How it was run: as §1

[26] = system: MSK1, MSK2 domain1
How it was run: as §1

[27] = target: NEK8 (Homo sapiens (Human), UniProt Q86SG6)
How it was run: as §1

[28] = target: NLK (Homo sapiens (Human), UniProt Q9UBE8)
How it was run: as §1

[29] = target: OSR1 (Homo sapiens (Human), UniProt O95747)
How it was run: as §1

[30] = target: PIK3C2B (Homo sapiens (Human), UniProt O00750)
How it was run: as §1

[31] = target: PIK3CB (Homo sapiens (Human), UniProt P42338)
How it was run: as §1

[32] = target: PIK3CG (Homo sapiens (Human), UniProt P48736)
How it was run: as §1

[33] = target: RSKL1 (Homo sapiens (Human), UniProt Q96S38)
How it was run: as §1

[34] = target: STK33 (Homo sapiens (Human), UniProt Q9BYT3)
How it was run: as §1

[35] = target: STLK6 (Homo sapiens (Human), UniProt Q9C0K7)
Sequence of STLK6 (Q9C0K7 whole entry): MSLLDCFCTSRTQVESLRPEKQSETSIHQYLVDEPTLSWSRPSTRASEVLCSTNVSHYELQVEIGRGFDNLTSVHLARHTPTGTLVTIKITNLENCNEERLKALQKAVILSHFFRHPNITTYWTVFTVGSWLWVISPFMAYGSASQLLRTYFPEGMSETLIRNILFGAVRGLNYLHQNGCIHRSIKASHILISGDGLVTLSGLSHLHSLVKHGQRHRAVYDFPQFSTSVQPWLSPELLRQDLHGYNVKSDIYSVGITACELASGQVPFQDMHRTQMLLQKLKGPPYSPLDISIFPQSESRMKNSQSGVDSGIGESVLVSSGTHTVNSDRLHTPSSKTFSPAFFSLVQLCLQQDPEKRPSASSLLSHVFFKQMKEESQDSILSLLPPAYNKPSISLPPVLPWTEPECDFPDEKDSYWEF
How it was run: as §1

[36] = target: TLK2 (Homo sapiens (Human), UniProt Q86UE8)
How it was run: as §1

[37] = target: ULK3 (Homo sapiens (Human), UniProt Q6PHR2)
Sequence of ULK3 (Q6PHR2 whole entry): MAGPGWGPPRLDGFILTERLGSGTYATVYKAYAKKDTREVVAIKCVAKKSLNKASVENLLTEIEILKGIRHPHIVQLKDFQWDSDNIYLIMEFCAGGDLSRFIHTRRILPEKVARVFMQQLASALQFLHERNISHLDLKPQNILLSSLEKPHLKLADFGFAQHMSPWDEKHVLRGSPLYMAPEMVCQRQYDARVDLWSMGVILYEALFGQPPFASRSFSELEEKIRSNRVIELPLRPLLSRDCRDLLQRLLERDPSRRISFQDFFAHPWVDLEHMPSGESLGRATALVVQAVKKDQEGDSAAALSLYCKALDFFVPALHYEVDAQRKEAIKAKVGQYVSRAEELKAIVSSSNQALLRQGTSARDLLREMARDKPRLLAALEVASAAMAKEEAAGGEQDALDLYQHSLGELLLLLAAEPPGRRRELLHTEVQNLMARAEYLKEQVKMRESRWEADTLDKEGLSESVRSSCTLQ
How it was run: as §1

[38] = target: VRK2 (Homo sapiens (Human), UniProt Q86Y07)
Sequence of VRK2 (Q86Y07 whole entry): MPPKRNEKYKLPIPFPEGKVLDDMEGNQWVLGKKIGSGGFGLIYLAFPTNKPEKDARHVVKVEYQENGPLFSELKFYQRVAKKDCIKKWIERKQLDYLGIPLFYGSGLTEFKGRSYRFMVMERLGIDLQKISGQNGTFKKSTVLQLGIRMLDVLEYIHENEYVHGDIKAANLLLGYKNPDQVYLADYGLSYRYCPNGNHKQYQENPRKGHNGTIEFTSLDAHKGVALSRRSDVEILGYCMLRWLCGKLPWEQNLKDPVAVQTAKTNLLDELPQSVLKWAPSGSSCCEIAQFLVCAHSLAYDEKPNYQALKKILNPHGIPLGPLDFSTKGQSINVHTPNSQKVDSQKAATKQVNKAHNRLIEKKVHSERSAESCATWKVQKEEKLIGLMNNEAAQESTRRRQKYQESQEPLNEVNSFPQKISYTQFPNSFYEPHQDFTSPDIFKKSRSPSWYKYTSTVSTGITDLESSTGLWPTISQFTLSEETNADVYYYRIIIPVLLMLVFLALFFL
How it was run: as §1

[39] = system: ZC1/HGK, ZC2/TNIK, ZC3/MINK
How it was run: as §1

[40] = system: p38d, p38g
How it was run: as §1

[41] = target: p70S6K (Homo sapiens (Human), UniProt P23443)
How it was run: as §1

`C=CC(=O)N1CCCCC(Nc2nccc(Nc3ncc(C(=O)Nc4c(C)cccc4C)s3)n2)C1` (centres unmarked) [Example I-7] was tested, and the “% change of MS signal compared to control sample” value (shortened to “% change of MS signal”) [1] was 80.7% and 88.5%, the “% change of MS signal” value [2] was −16.4% and the “% change of MS signal” value [3] was −48.0%. The “% change of MS signal” value [4] was 98.9% and >90%, the “% change of MS signal” value [5] was −0.7% and the “% change of MS signal” value [6] was −15.7%. The “% change of MS signal” value [7] was −22.5%, the “% change of MS signal” value [8] was −4.7% and the “% change of MS signal” value [9] was −13.8%. The “% change of MS signal” value [10] was −20.9%, the “% change of MS signal” value [11] was −11.3% and the “% change of MS signal” value [12] was 0.4%. For the same compound, the “% change of MS signal” value [13] was −10.7%, the “% change of MS signal” value [14] was 17.1% and 28.2% and the “% change of MS signal” value [15] was 19.0%. For the same compound, the “% change of MS signal” value [16] was −9.6%, the “% change of MS signal” value [17] was −3.7% and the “% change of MS signal” value [18] was 4.0%. For the same compound, the “% change of MS signal” value [19] was 42.8%, the “% change of MS signal” value [20] was −21.3% and the “% change of MS signal” value [21] was 7.7%. The “% change of MS signal” value [22] was −11.0%, the “% change of MS signal” value [23] was 20.7% and the “% change of MS signal” value [24] was −1.6%. The “% change of MS signal” value [25] was −11.0%, the “% change of MS signal” value [26] was −40.4% and the “% change of MS signal” value [27] was 12.2%. For the same compound, the “% change of MS signal” value [28] was 4.2%, the “% change of MS signal” value [29] was 22.0% and the “% change of MS signal” value [30] was 39.9%. The “% change of MS signal” value [31] was −42.6%, the “% change of MS signal” value [32] was −51.9% and the “% change of MS signal” value [33] was 29.7%. The “% change of MS signal” value [34] was 21.1%, the “% change of MS signal” value [35] was −16.3% and the “% change of MS signal” value [36] was 7.3%. The “% change of MS signal” value [37] was 15.5% and 18.4%, the “% change of MS signal” value [38] was −2.3% and the “% change of MS signal” value [39] was 6.2%. For the same compound, the “% change of MS signal” value [40] was 1.7% and the “% change of MS signal” value [41] was −70.1%.
